From PMC3438292 (Journal of medicinal chemistry, 2010)

Assays:
5-HT2B receptor = details: cited from earlier work
5-HT2B receptors = 5-HT2B receptors (Homo sapiens, UniProt P41595); test: 5-HT2B functional assays at the PDSP; type: cell-based; details: among the 9 5-HT2B ligands
Chain of 5-HT2B receptors (P41595 whole entry): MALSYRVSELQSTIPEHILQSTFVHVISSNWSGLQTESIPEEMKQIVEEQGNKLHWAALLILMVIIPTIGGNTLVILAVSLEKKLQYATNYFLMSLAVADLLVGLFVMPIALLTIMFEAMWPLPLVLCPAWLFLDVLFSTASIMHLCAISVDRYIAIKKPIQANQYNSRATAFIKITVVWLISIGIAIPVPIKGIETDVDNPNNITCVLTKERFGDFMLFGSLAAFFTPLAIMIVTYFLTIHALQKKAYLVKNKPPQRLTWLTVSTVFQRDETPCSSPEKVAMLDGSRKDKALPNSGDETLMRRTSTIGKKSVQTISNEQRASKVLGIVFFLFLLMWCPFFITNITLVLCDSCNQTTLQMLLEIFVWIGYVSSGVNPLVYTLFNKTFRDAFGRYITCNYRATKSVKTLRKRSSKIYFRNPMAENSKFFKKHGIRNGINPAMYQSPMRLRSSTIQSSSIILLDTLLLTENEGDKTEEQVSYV

In the case of `CC[C@@H](CO)NC(=O)[C@@H]1C=C2c3cccc4[nH]cc(c34)C[C@H]2N(C)C1` [Methylergonovine], the “activation of 5-HT2B receptors” value (5-HT2B receptor) is given as “potently activate”.

For `CC(N)Cc1cccc(C(F)(F)F)c1` (stereo not drawn) [norfenfluramine], the “activation of 5-HT2B receptors” value (5-HT2B receptor) is given as “potently activate”.

For `CN1C[C@H](C(=O)N[C@]2(C)O[C@@]3(O)[C@@H]4CCCN4C(=O)[C@H](Cc4ccccc4)N3C2=O)C=C2c3cccc4[nH]cc(c34)C[C@H]21` [ergotamine], the “activation of 5-HT2B receptors” value (5-HT2B receptor) is listed as “potently activate”.

In the case of `CCNC(C)Cc1cccc(C(F)(F)F)c1` (stereo not drawn) [Fenfluramine], the “activation of 5-HT2B receptors” value (5-HT2B receptor) is given as “potently activate”.

With `CC[C@@H](CO)NC(=O)[C@@H]1C=C2c3cccc4[nH]cc(c34)C[C@H]2N(C)C1` [Compound 7, methylergometrine] the “agonist activity in 5-HT2B functional assays” value (5-HT2B receptors) was “strong agonist activity”.

In the case of `CCCN1C[C@H](CSC)C[C@@H]2c3cccc4[nH]cc(c34)C[C@H]21` [Pergolide], the “activation of 5-HT2B receptors” value (5-HT2B receptor) is listed as “potently activate”.
